For the data set, the system named is CCRIS mutagenicity, Ames/micronucleus/aberration tests. Briefly: CCRIS mutagenicity studies.
Setting [1] is: Test System: AMES SALMONELLA TYPHIMURIUM, Strain/Indicator: TA98, Metabolic Activation: NONE, Method: STANDARD PLATE.
Setting [2] is: Test System: AMES SALMONELLA TYPHIMURIUM, Strain/Indicator: TA100, Metabolic Activation: NONE, Method: STANDARD PLATE.
The mark [3] stands for this setting: Test System: AMES SALMONELLA TYPHIMURIUM, Strain/Indicator: TA1537, Metabolic Activation: NONE, Method: STANDARD PLATE.
Setting [4] is: Test System: AMES SALMONELLA TYPHIMURIUM, Strain/Indicator: TA100, Metabolic Activation: NONE, Method: PREINCUBATION
Where [5] appears, read: Test System: AMES SALMONELLA TYPHIMURIUM, Strain/Indicator: TA1538, Metabolic Activation: NONE, Method: STANDARD PLATE.
Where [6] appears, read: Test System: AMES SALMONELLA TYPHIMURIUM, Strain/Indicator: TA98, Metabolic Activation: NONE, Method: PREINCUBATION

Activity calls are given as the source filed them. How the calls were made is not given here.

For `COc1cc(O)c2c(=O)c3c(O)ccc(O)c3oc2c1`, the mutagenic call was “active; positive” (Test System: AMES SALMONELLA TYPHIMURIUM, Strain/Indicator: TA97, Metabolic Activation: NONE, Method: PREINCUBATION); “active; positive” (Test System: AMES SALMONELLA TYPHIMURIUM, Strain/Indicator: TA97, Metabolic Activation: RAT, LIVER, S-9, PHENOBARBITAL AND 5,6-BENZOFLAVONE, Method: PREINCUBATION); “inactive; negative” (Test System: AMES SALMONELLA TYPHIMURIUM, Strain/Indicator: TA98, Metabolic Activation: RAT, LIVER, S-9, PHENOBARBITAL AND 5,6-BENZOFLAVONE, Method: PREINCUBATION); “inactive; negative” (Test System: AMES SALMONELLA TYPHIMURIUM, Strain/Indicator: TA100, Metabolic Activation: RAT, LIVER, S-9, PHENOBARBITAL AND 5,6-BENZOFLAVONE, Method: PREINCUBATION); “active; positive” (Test System: AMES SALMONELLA TYPHIMURIUM, Strain/Indicator: TA2637, Metabolic Activation: RAT, LIVER, S-9, PHENOBARBITAL AND 5,6-BENZOFLAVONE, Method: PREINCUBATION).
In the case of `CCCCCCCCCCCC(=O)OCCS(=O)(=O)O`, the mutagenic call was “inactive; negative” (Test System: AMES SALMONELLA TYPHIMURIUM, Strain/Indicator: TA98, Metabolic Activation: HAMSTER, LIVER, S-9, AROCLOR 1254, Method: STANDARD PLATE); “inactive; negative” under setting [1]; “inactive; negative” (Test System: AMES SALMONELLA TYPHIMURIUM, Strain/Indicator: TA98, Metabolic Activation: RAT, LIVER, S-9, AROCLOR 1254, Method: STANDARD PLATE); “inactive; negative” (Test System: AMES SALMONELLA TYPHIMURIUM, Strain/Indicator: TA100, Metabolic Activation: HAMSTER, LIVER, S-9, AROCLOR 1254, Method: STANDARD PLATE); “inactive; negative” under setting [2]; “inactive; negative” (Test System: AMES SALMONELLA TYPHIMURIUM, Strain/Indicator: TA100, Metabolic Activation: RAT, LIVER, S-9, AROCLOR 1254, Method: STANDARD PLATE). Moreover, the mutagenic call is “inactive; negative” (Test System: AMES SALMONELLA TYPHIMURIUM, Strain/Indicator: TA1535, Metabolic Activation: HAMSTER, LIVER, S-9, AROCLOR 1254, Method: STANDARD PLATE); “inactive; negative” (Test System: AMES SALMONELLA TYPHIMURIUM, Strain/Indicator: TA1535, Metabolic Activation: NONE, Method: STANDARD PLATE); “inactive; negative” (Test System: AMES SALMONELLA TYPHIMURIUM, Strain/Indicator: TA1535, Metabolic Activation: RAT, LIVER, S-9, AROCLOR 1254, Method: STANDARD PLATE); “inactive; negative” (Test System: AMES SALMONELLA TYPHIMURIUM, Strain/Indicator: TA1537, Metabolic Activation: HAMSTER, LIVER, S-9, AROCLOR 1254, Method: STANDARD PLATE); “inactive; negative” under setting [3]; “inactive; negative” (Test System: AMES SALMONELLA TYPHIMURIUM, Strain/Indicator: TA1537, Metabolic Activation: RAT, LIVER, S-9, AROCLOR 1254, Method: STANDARD PLATE). Besides, the mutagenic call by setting is: (Test System: MOUSE LYMPHOMA, Strain/Indicator: L5178Y (TK+/TK-), Metabolic Activation: NONE, Method: SUSPENSION/PLATE) “inactive; negative. reevaluation of results: negative”; (Test System: MOUSE LYMPHOMA, Strain/Indicator: L5178Y (TK+/TK-), Metabolic Activation: RAT, LIVER, S-9, AROCLOR 1254, Method: SUSPENSION/PLATE) “inactive; negative. reevaluation of results: negative”.
Turning to `c1ccc2c(c1)cc1c3c2ccc2cccc(c23)C2OC12` (stereo not drawn), the mutagenic call by setting is: (Test System: AMES SALMONELLA TYPHIMURIUM, Strain/Indicator: TA98, Metabolic Activation: NONE, Method: HOST-MEDIATED) “inactive; negative”; under setting [1], “active; positive”; (Test System: AMES SALMONELLA TYPHIMURIUM, Strain/Indicator: TA98, Metabolic Activation: RAT, LIVER, S-9, KC500 OR PHENOBARBITAL, Method: LIQUID SUSPENSION) “active; positive”; (Test System: AMES SALMONELLA TYPHIMURIUM, Strain/Indicator: TA100, Metabolic Activation: MICROSOMAL EPOXIDE HYDROLASE, Method: PREINCUBATION) “active; positive”; (Test System: AMES SALMONELLA TYPHIMURIUM, Strain/Indicator: TA100, Metabolic Activation: NONE, Method: HOST-MEDIATED) “inactive; negative”; under setting [4], “active; positive”. In addition, the mutagenic call runs as follows: under setting [2], “active; positive”; (Test System: AMES SALMONELLA TYPHIMURIUM, Strain/Indicator: TA100, Metabolic Activation: RAT, LIVER, S-9, KC500 OR PHENOBARBITAL, Method: LIQUID SUSPENSION) “active; positive”; under setting [3], “active; positive”; (Test System: AMES SALMONELLA TYPHIMURIUM, Strain/Indicator: TA1538, Metabolic Activation: NONE, Method: HOST-MEDIATED) “inactive; negative”; under setting [5], “active; positive”; (Test System: CHINESE HAMSTER V-79, Strain/Indicator: V-79/6-THIOGUANINE, Metabolic Activation: NONE, Method: REPLATING) “active; positive”. Besides, the mutagenic call was “active; positive” (Test System: CHINESE HAMSTER V-79, Strain/Indicator: V-79/6-THIOGUANINE, Metabolic Activation: NONE, Method: STANDARD PLATE); “active; positive” (Test System: CHINESE HAMSTER V-79, Strain/Indicator: V-79/8-AZAGUANINE, Metabolic Activation: NONE, Method: STANDARD PLATE); “active; positive” (Test System: CHINESE HAMSTER V-79, Strain/Indicator: V-79/OUABAIN, Metabolic Activation: NONE, Method: STANDARD PLATE); “active; positive” (Test System: E. COLI, Strain/Indicator: WP2UVRA, Metabolic Activation: NONE, Method: STANDARD PLATE); “active; positive” (Test System: UDS HUMAN CELLS, Strain/Indicator: THY INCORP (NON-S-PHASE), Metabolic Activation: NONE, Method: LIQUID SCINTILLATION COUNTING).
Take `CCc1c2ccccc2cc2c3c(ccc12)[C@H](O)[C@@H](O)[C@H]1O[C@@H]31`: the mutagenic call runs as follows: under setting [6], “active; positive”; under setting [4], “active; positive”; (Test System: CHINESE HAMSTER V-79, Strain/Indicator: V-79/6-THIOGUANINE, Metabolic Activation: NONE) “active; positive”.
`CCCCCCCCCCCCc1ccccc1`: the mutagenic call is “inactive; negative” under setting [6]; “inactive; negative” (Test System: AMES SALMONELLA TYPHIMURIUM, Strain/Indicator: TA98, Metabolic Activation: RAT, LIVER, S-9, KC 500, Method: PREINCUBATION); “inactive; negative” under setting [4]; “inactive; negative” (Test System: AMES SALMONELLA TYPHIMURIUM, Strain/Indicator: TA100, Metabolic Activation: RAT, LIVER, S-9, KC 500, Method: PREINCUBATION); “inactive; negative” (Test System: AMES SALMONELLA TYPHIMURIUM, Strain/Indicator: TA1535, Metabolic Activation: NONE, Method: PREINCUBATION); “inactive; negative” (Test System: AMES SALMONELLA TYPHIMURIUM, Strain/Indicator: TA1535, Metabolic Activation: RAT, LIVER, S-9, KC 500, Method: PREINCUBATION). In addition, the mutagenic call reads like this: (Test System: AMES SALMONELLA TYPHIMURIUM, Strain/Indicator: TA1537, Metabolic Activation: NONE, Method: PREINCUBATION) “inactive; negative”; (Test System: AMES SALMONELLA TYPHIMURIUM, Strain/Indicator: TA1537, Metabolic Activation: RAT, LIVER, S-9, KC 500, Method: PREINCUBATION) “inactive; negative”; (Test System: AMES SALMONELLA TYPHIMURIUM, Strain/Indicator: TA1538, Metabolic Activation: NONE, Method: PREINCUBATION) “inactive; negative”; (Test System: AMES SALMONELLA TYPHIMURIUM, Strain/Indicator: TA1538, Metabolic Activation: RAT, LIVER, S-9, KC 500, Method: PREINCUBATION) “inactive; negative”; (Test System: E. COLI, Strain/Indicator: WP2 UVRA, Metabolic Activation: NONE, Method: PREINCUBATION) “inactive; negative”; (Test System: E. COLI, Strain/Indicator: WP2 UVRA, Metabolic Activation: RAT, LIVER, S-9, KC 500, Method: PREINCUBATION) “inactive; negative”.
Take `CCOC(=O)c1cc2cc3c4c(c2oc1=O)CCCN4CCC3`: the mutagenic call is, setting by setting: under setting [5], “inactive; negative”; (Test System: AMES SALMONELLA TYPHIMURIUM, Strain/Indicator: TA1538, Metabolic Activation: RAT, LIVER, S-9, AROCLOR 1254, Method: STANDARD PLATE) “inactive; negative”.

(Values after PubChem BioAssay AID1259407 (Chemical Carcinogenesis Research Information System (CCRIS), 2018).)
